Laboratory results published in US20250302832A1, “PYRAZINE DERIVATIVES AND USES THEREOF” (FOGHORN THERAPEUTICS INC., priority 2022, published 2025).

Legend:
HiBit-BRM fusion protein = target: T1, HiBit-BRM fusion protein (Homo sapiens, UniProt P51531); assay: HiBiT-BRM cell-based degradation assay (Nano-Glo HiBiT lytic detection, 24 h); conditions: HeLa cell line expressing HiBiT-BRM; for DC50: read-out: BRM HiBit Degradation IC50
T1 construct: expressed in transfected cells
Summary of the method: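 Stable HeLa HiBiT-BRM cells treated 24 h with compounds (10-point 3-fold dilutions, 30 μM final top dose, duplicate). HiBiT levels read by Nano-Glo lytic luminescence; % degradation normalised to DMSO (high control) and 2 μM reference BRM/BRG1 degrader (low control).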

[1] = target: T2, HiBit-BRG1 fusion protein (Homo sapiens, UniProt P51532); assay: HiBiT-BRG1 cell-based degradation assay (Nano-Glo HiBiT lytic detection, 24 h); conditions: HeLa cell line expressing HiBit-BRG1 and LgBit; for Dmax: read-out: BRG1 HiBit Degradation Maximum (%); for DC50: read-out: BRMG1 HiBit Degradation IC50
T2 construct: expressed in transfected cells
T2 sequence (P51532 whole entry, the tested form may be a part): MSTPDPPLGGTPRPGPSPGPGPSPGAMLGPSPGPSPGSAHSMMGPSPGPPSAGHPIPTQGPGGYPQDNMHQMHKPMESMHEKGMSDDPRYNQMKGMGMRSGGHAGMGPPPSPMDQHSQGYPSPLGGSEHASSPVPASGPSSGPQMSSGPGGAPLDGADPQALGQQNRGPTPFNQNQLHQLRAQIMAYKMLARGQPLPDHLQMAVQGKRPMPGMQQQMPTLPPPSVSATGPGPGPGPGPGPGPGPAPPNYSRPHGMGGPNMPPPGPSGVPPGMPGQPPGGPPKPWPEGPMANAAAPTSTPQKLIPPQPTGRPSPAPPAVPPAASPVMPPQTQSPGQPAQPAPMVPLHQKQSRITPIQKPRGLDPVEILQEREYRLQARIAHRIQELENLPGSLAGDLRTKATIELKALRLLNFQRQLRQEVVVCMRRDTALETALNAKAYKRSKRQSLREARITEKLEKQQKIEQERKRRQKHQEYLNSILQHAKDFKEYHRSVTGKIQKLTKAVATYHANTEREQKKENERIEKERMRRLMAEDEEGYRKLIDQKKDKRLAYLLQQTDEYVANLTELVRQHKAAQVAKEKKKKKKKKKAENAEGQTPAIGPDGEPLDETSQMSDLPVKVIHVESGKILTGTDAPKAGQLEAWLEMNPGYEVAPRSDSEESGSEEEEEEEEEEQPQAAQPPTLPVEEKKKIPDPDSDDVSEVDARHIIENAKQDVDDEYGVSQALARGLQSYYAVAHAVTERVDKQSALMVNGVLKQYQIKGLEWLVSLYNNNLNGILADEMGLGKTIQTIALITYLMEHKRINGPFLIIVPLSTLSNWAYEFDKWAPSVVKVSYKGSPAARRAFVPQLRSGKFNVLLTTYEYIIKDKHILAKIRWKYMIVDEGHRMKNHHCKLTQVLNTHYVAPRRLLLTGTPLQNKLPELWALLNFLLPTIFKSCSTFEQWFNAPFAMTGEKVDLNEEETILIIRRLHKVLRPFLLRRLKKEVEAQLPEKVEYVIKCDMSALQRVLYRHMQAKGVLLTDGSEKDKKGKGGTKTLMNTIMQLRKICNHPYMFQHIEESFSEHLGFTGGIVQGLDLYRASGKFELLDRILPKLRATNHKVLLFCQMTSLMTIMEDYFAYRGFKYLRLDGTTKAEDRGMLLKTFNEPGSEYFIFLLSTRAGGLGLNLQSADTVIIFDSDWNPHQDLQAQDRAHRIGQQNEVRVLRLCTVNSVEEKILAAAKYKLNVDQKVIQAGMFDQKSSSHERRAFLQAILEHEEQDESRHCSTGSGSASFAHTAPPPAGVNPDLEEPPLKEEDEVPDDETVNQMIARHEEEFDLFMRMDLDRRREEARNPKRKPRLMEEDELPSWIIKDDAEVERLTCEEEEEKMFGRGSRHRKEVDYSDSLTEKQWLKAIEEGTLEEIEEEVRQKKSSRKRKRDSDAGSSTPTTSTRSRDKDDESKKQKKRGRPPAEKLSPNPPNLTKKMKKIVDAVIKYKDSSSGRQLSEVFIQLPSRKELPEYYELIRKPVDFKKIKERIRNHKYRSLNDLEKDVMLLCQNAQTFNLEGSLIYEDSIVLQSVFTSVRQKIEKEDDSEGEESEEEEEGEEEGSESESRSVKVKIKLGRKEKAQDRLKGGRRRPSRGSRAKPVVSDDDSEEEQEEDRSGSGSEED
Summary of the method: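 HeLa cells stably expressing HiBiT-BRG1 and LgBiT, 5000 per well, compound-treated 24 h, equilibrated 15 min at room temperature, then lysed with LgBiT-containing Nano-Glo HiBiT lytic reagent and luminescence read. % degradation normalised between DMSO (high control) and 2 μM reference BRM/BRG1 degrader (low control).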

T1 sequence (P51531 whole entry, the tested form may be a part): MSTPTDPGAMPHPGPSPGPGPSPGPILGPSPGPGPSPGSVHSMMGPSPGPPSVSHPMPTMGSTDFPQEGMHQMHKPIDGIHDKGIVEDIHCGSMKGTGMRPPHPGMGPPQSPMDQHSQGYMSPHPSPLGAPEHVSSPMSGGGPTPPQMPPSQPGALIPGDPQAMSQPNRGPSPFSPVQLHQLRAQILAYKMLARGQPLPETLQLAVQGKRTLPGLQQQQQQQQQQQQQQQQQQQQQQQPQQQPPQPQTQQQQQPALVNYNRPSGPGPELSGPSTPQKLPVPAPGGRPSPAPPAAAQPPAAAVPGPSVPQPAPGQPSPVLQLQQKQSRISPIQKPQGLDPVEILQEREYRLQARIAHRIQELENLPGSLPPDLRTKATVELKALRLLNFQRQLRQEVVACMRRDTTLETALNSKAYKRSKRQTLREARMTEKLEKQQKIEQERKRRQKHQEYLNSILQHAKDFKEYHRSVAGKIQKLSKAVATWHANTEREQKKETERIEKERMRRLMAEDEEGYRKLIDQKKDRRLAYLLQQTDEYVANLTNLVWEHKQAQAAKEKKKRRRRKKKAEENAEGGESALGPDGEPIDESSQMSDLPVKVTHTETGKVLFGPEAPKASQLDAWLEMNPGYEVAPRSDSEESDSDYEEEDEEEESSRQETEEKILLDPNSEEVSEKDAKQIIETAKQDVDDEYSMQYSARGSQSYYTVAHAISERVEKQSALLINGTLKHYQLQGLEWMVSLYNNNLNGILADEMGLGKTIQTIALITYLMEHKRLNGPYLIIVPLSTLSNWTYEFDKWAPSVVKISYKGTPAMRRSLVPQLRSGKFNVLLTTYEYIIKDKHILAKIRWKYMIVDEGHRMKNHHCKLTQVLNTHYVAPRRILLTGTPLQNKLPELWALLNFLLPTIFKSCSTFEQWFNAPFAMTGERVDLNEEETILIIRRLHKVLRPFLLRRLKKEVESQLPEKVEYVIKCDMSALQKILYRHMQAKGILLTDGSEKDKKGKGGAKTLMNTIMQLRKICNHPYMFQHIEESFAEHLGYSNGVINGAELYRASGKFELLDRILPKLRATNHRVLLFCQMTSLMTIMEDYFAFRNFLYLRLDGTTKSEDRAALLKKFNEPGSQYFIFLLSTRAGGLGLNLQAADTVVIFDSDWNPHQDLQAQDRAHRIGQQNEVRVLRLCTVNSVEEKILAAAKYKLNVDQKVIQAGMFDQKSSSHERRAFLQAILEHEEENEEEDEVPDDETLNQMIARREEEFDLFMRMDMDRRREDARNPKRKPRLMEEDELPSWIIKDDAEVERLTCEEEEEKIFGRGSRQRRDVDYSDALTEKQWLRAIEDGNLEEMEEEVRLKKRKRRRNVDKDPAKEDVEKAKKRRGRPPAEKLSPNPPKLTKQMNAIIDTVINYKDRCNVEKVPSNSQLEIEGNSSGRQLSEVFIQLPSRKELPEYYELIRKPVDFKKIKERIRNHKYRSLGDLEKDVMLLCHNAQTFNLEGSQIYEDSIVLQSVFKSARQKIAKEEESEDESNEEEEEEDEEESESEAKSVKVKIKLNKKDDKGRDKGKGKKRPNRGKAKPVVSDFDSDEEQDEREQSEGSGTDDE

Row | SMILES | BRM HiBit Degradation Maximum (%) (HiBit-BRM fusion protein) | DC50 (HiBit-BRM fusion protein) [µM] | Dmax [1] [%] | DC50 [1] [µM]
1 | Cc1ncsc1-c1ccc([C@H](C)NC(=O)[C@@H]2C[C@@H](O)CN2C(=O)[C@H](c2cc(-c3cnc(N4CCN(c5cc6nnc(-c7ccccc7O)cc6n5C)CC4)nc3)no2)C(C)C)cc1 [Compound 29, (2S,4R)-4-hydroxy-1-[(2S)-2-[3-(2-{4-[3-(2-hydroxyphenyl)-5-methylpyrrolo[3,2-c]pyridazin-6-yl]piperazin-1-yl}pyrimidin-5-yl)-1,2-oxazol-5-yl]-3-methylbutanoyl]-N-[(1S)-1-[4-(4-methyl-1,3-thiazol-5-yl)phenyl]ethyl]pyrrolidine-2-carboxamide] | A (“A” indicates maximum degradation ≥75%) | > 0.01 | < 50 | 
2 | C#Cc1ccc(CNC(=O)[C@@H]2C[C@@H](O)CN2C(=O)C(c2cc(N3CC4(CC(c5cc6nnc(-c7ccccc7O)cc6n5C5CCC5)C4)C3)no2)C(C)C)cc1 (stereo partly drawn) [Compound 57, (2S,4R)-1-(2-(3-(6-(5-cyclobutyl-3-(2-hydroxyphenyl)-5H-pyrrolo[3,2-c]pyridazin-6-yl)-2-azaspiro[3.3]heptan-2-yl)isoxazol-5-yl)-3-methylbutanoyl)-N-(4-ethynylbenzyl)-4-hydroxypyrrolidine-2-carboxamide] | A (“A” indicates maximum degradation ≥75%) | < 0.01 | < 50 | 
3 | Cc1ncsc1-c1ccc([C@H](C)NC(=O)[C@@H]2C[C@@H](O)CN2C(=O)[C@@H](c2cc(N3CCC4(CC[C@H](c5cc6nnc(-c7ccccc7O)cc6n5C5CC5)C4)CC3)no2)C(C)C)cc1 [Compound 96, (2S,4R)-1-((R)-2-(3-((S)-2-(5-cyclopropyl-3-(2-hydroxyphenyl)-5H-pyrrolo[3,2-c]pyridazin-6-yl)-8-azaspiro[4.5]decan-8-yl)isoxazol-5-yl)-3-methylbutanoyl)-4-hydroxy-N-((S)-1-(4-(4-methylthiazol-5-yl)phenyl)ethyl)pyrrolidine-2-carboxamide] | A (“A” indicates maximum degradation ≥75%) | < 0.01 | > 50 | > 0.01
4 | Cc1ncsc1-c1ccc(CNC(=O)[C@@H]2C[C@@H](O)CN2C(=O)[C@@H](c2cc(-c3cnc(N4CC[C@H](c5cc6nnc(-c7ccccc7O)cc6n5C5CC5)C4)nc3)no2)C(C)C)cc1 [Compound 90, (2S,4R)-1-((R)-2-(3-(2-((S)-3-(5-cyclopropyl-3-(2-hydroxyphenyl)-5H-pyrrolo[3,2-c]pyridazin-6-yl)pyrrolidin-1-yl)pyrimidin-5-yl)isoxazol-5-yl)-3-methylbutanoyl)-4-hydroxy-N-(4-(4-methylthiazol-5-yl)benzyl)pyrrolidine-2-carboxamide] | A (“A” indicates maximum degradation ≥75%) | < 0.01 | < 50 | 
5 | Cc1ncsc1-c1ccc([C@H](C)NC(=O)[C@@H]2C[C@@H](O)CN2C(=O)[C@@H](c2cc(OCCN3C[C@@H]4[C@H](C3)[C@H]4n3c(C)cc4nnc(-c5ccccc5O)cc43)no2)C(C)C)cc1 [Compound 33, (2S,4R)-4-hydroxy-1-[(2R)-2-(3-{2-[(1R,5S,6S)-6-[3-(2-hydroxyphenyl)-6-methylpyrrolo[3,2-c]pyridazin-5-yl]-3-azabicyclo[3.1.0]hexan-3-yl]ethoxy}-1,2-oxazol-5-yl)-3-methylbutanoyl]-N-[(1S)-1-[4-(4-methyl-1,3-thiazol-5-yl)phenyl]ethyl]pyrrolidine-2-carboxamide] | C (“C” indicates maximum degradation <50%) |  | < 50 | 
6 | Cc1ncsc1-c1ccc(CNC(=O)[C@@H]2C[C@@H](O)CN2C(=O)[C@@H](c2cc(N3CCC4(CC3)CC(c3cc5nnc(-c6ccccc6O)cc5n3C3CC3)C4)no2)C(C)C)cc1 [Compound 84, (2S,4R)-1-((R)-2-(3-(2-(5-cyclopropyl-3-(2-hydroxyphenyl)-5H-pyrrolo[3,2-c]pyridazin-6-yl)-7-azaspiro[3.5]nonan-7-yl)isoxazol-5-yl)-3-methylbutanoyl)-4-hydroxy-N-(4-(4-methylthiazol-5-yl)benzyl)pyrrolidine-2-carboxamide] | A (“A” indicates maximum degradation ≥75%) | < 0.01 | < 50 | 
7 | Cc1ncsc1-c1ccc([C@H](C)NC(=O)[C@@H]2C[C@@H](O)CN2C(=O)[C@@H](c2cc(N3CCC4(CC3)CC(c3cc5nnc(-c6ccccc6O)cc5n3CC3CC3)C4)no2)C(C)C)cc1 [Compound 86, (2S,4R)-1-((R)-2-(3-(2-(5-(cyclopropylmethyl)-3-(2-hydroxyphenyl)-5H-pyrrolo[3,2-c]pyridazin-6-yl)-7-azaspiro[3.5]nonan-7-yl)isoxazol-5-yl)-3-methylbutanoyl)-4-hydroxy-N-((S)-1-(4-(4-methylthiazol-5-yl)phenyl)ethyl)pyrrolidine-2-carboxamide] | A (“A” indicates maximum degradation ≥75%) | < 0.01 | < 50 | 
8 | Cc1ncsc1-c1ccc([C@H](C)NC(=O)[C@@H]2C[C@@H](O)CN2C(=O)[C@@H](c2cc(-c3cnc(N4CCC(c5cc6nnc(-c7ccccc7O)cc6n5C)CC4)nc3)no2)C(C)C)cc1 [Compound 21, (2S,4R)-4-hydroxy-1-((R)-2-(3-(2-(4-(3-(2-hydroxyphenyl)-5-methyl-5H-pyrrolo[3,2-c]pyridazin-6-yl)piperidin-1-yl)pyrimidin-5-yl)isoxazol-5-yl)-3-methylbutanoyl)-N—((S)-1-(4-(4-methylthiazol-5-yl)phenyl)ethyl) pyrrolidine-2-carboxamide] | A (“A” indicates maximum degradation ≥75%) | < 0.01 | > 50 | < 0.01
9 | C#Cc1ccc(CNC(=O)[C@@H]2C[C@@H](O)CN2C(=O)C(c2cc(N3CC4(CC(c5cc6nnc(-c7ccccc7O)cc6n5C5CCC5)C4)C3)no2)C(C)C)c(OCCCOC)c1 (stereo partly drawn) [Compound 52, (2S,4R)-1-(2-(3-(6-(5-cyclobutyl-3-(2-hydroxyphenyl)-5H-pyrrolo[3,2-c]pyridazin-6-yl)-2-azaspiro[3.3]heptan-2-yl)isoxazol-5-yl)-3-methylbutanoyl)-N-(4-ethynyl-2-(3-methoxypropoxy)benzyl)-4-hydroxypyrrolidine-2-carboxamide] | A (“A” indicates maximum degradation ≥75%) | < 0.01 | < 50 | 
10 | Cc1ncsc1-c1ccc([C@H](C)NC(=O)[C@@H]2C[C@@H](O)CN2C(=O)[C@@H](c2cc(N3CC[C@H](c4cc5nnc(-c6ccccc6O)cc5n4C4(C)CC4)C3)no2)C(C)C)cc1 [Compound 80, (2S,4R)-4-hydroxy-1-((R)-2-(3-((S)-3-(3-(2-hydroxyphenyl)-5-(1-methylcyclopropyl)-5H-pyrrolo[3,2-c]pyridazin-6-yl)pyrrolidin-1-yl)isoxazol-5-yl)-3-methylbutanoyl)-N-((S)-1-(4-(4-methylthiazol-5-yl)phenyl)ethyl)pyrrolidine-2-carboxamide] | A (“A” indicates maximum degradation ≥75%) | > 0.01 | > 75 | > 0.01
11 | Cc1ncsc1-c1ccc([C@H](C)NC(=O)[C@@H]2C[C@@H](O)CN2C(=O)[C@@H](c2cc(N3CC4(CC(c5cc6nnc(-c7ccccc7O)cc6n5C5CCC5)C4)C3)no2)C(C)C)cc1 [Compound 105, (2S,4R)-1-[(2R)-2-(3-{6-[5-cyclobutyl-3-(2-hydroxyphenyl)pyrrolo[3,2-c]pyridazin-6-yl]-2-azaspiro[3.3]heptan-2-yl}-1,2-oxazol-5-yl)-3-methylbutanoyl]-4-hydroxy-N-[(1S)-1-[4-(4-methyl-1,3-thiazol-5-yl)phenyl]ethyl]pyrrolidine-2-carb oxamide] | A (“A” indicates maximum degradation ≥75%) | < 0.01 | < 50 | 
12 | CC(C)NC(=O)[C@@H]1C[C@@H](O)CN1C(=O)C(c1cc(N2CC3(CC(c4cc5nnc(-c6ccccc6O)cc5n4C4CCC4)C3)C2)no1)C(C)C (stereo partly drawn) [Compound 54, (2S,4R)-1-(2-(3-(6-(5-cyclobutyl-3-(2-hydroxyphenyl)-5H-pyrrolo[3,2-c]pyridazin-6-yl)-2-azaspiro[3.3]heptan-2-yl)isoxazol-5-yl)-3-methylbutanoyl)-4-hydroxy-N-isopropylpyrrolidine-2-carboxamide] | A (“A” indicates maximum degradation ≥75%) | > 0.01 | < 50 | 
13 | CC(C)C(C(=O)N1C[C@H](O)C[C@H]1C(=O)NCc1ccc(F)cc1)c1cc(N2CC3(CC(c4cc5nnc(-c6ccccc6O)cc5n4C4CCC4)C3)C2)no1 (stereo partly drawn) [Compound 50, (2S,4R)-1-(2-(3-(6-(5-cyclobutyl-3-(2-hydroxyphenyl)-5H-pyrrolo[3,2-c]pyridazin-6-yl)-2-azaspiro[3.3]heptan-2-yl)isoxazol-5-yl)-3-methylbutanoyl)-N-(4-fluorobenzyl)-4-hydroxypyrrolidine-2-carboxamide] | A (“A” indicates maximum degradation ≥75%) | > 0.01 | < 50 | 
14 | C#CCNC(=O)[C@@H]1C[C@@H](O)CN1C(=O)C(c1cc(N2CC3(CC(c4cc5nnc(-c6ccccc6O)cc5n4C4CCC4)C3)C2)no1)C(C)C (stereo partly drawn) [Compound 53, (2S,4R)-1-(2-(3-(6-(5-cyclobutyl-3-(2-hydroxyphenyl)-5H-pyrrolo[3,2-c]pyridazin-6-yl)-2-azaspiro[3.3]heptan-2-yl)isoxazol-5-yl)-3-methylbutanoyl)-4-hydroxy-N-(prop-2-yn-1-yl)pyrrolidine-2-carboxamide] | A (“A” indicates maximum degradation ≥75%) | > 0.01 | < 50 | 
